What was measured:
[1] = biological target: T1, Bgl3A (Evansstolkia leycettana, UniProt A0A1B0VFN7); experiment: inhibition of daidzin hydrolysis, HPLC; type: biochemical; details: 0.5 mM daidzin, glucose printed as 10 mM but 80 mM stock diluted fourfold; pH 6.5, 37 °C, 5 min
T1 construct: laboratory stock enzyme

[2] = biological target: AsBG1 (Alicyclobacillus sp. A4, UniProt A0A220YLM5); experiment: inhibition of cellobiose hydrolysis, ion exchange chromatography; type: biochemical; details: read-out: % inhibition at 10 mM
[3] = system: O=[N+]([O-])c1ccc(O[C@@H]2O[C@H](CO)[C@@H](O)[C@H](O)[C@H]2O)cc1; experiment: initial rate, Lineweaver-Burk plot; type: biochemical, Alicyclobacillus sp. A4; details: pH 6.5, 55 °C, 5 min, 0.2-1.5 mM pNPG

T1 sequence (A0A1B0VFN7 entry or part of it): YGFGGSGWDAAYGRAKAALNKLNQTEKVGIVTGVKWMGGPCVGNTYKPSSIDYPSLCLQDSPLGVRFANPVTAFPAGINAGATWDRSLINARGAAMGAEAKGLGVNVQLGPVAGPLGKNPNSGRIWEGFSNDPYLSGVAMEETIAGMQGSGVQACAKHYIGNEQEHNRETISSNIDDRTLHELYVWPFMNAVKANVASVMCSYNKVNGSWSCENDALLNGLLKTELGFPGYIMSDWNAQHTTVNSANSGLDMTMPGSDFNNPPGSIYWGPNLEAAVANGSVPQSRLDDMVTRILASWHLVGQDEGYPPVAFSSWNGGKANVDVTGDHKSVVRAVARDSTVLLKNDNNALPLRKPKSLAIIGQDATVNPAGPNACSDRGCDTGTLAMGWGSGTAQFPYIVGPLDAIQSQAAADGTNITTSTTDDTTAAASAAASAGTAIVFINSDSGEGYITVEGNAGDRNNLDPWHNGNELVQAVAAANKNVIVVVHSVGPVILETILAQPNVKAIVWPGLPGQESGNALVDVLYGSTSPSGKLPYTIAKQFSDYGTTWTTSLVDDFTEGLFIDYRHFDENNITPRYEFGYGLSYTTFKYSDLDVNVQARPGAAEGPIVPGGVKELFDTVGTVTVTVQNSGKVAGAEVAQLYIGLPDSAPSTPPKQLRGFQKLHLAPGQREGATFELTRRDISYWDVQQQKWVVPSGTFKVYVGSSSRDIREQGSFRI
Chain of AsBG1 (A0A220YLM5 1-454 limits assumed): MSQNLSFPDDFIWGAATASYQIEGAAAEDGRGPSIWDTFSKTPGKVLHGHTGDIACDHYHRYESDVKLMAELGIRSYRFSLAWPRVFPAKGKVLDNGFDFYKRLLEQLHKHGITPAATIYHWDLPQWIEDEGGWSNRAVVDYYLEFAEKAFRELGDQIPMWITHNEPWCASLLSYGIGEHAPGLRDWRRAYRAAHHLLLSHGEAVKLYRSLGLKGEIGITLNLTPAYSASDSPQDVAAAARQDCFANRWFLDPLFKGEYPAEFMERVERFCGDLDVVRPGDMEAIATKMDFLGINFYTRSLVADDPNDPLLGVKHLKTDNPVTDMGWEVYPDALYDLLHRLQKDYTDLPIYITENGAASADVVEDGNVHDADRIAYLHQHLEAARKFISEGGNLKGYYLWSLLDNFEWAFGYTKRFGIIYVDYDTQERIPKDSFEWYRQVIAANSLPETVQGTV

| inhibition at 10000 µM [2] | Compound | inhibition of daidzin hydrolysis, HPLC [1] | Km [3] |
| --- | --- | --- | --- |
| ~60% | OC[C@H]1OC(O)[C@H](O)[C@@H](O)[C@@H]1O (stereo partly drawn) [glucose] | the conversion efficiency of daidzin by Bgl3A was seriously impeded by glucose |  |
|  | AsBG1 (Alicyclobacillus sp. A4) |  | 400 µM |

From PMC6028883, “A highly glucose-tolerant GH1 β-glucosidase with greater conversion rate of soybean isoflavones in monogastric animals” (Journal of Industrial Microbiology & Biotechnology, 2018)
